Key:
[1] = test system: dogs; assay: Induction of methaemoglobin formation in dogs dosed orally; format: in vivo, dog; details: oral, 5 mg/kg
From the text: In copending European Application No. 88300281.8 (published 28th Sept., 1988 as EP 0284174 Al) it is disclosed that certain indazolone derivatives are effective as inhibitors of the enzyme 5-LO and thus of leukotriene biosyntheses.

[2] = molecular target: T1, 5-LO (Cavia porcellus, UniProt A0A286X958); assay: Test (a): in vitro spectrophotometric cell-free enzyme assay, 5-LO isolated from guinea pig neutrophils; format: biochemical; details: 5-LO from guinea pig neutrophils
T1 construct: cell free system using 5-LO isolated from guinea pig neutrophils; endogenous in cells; host or cells: guinea pig neutrophils
T1 sequence (A0A286X958 1-674): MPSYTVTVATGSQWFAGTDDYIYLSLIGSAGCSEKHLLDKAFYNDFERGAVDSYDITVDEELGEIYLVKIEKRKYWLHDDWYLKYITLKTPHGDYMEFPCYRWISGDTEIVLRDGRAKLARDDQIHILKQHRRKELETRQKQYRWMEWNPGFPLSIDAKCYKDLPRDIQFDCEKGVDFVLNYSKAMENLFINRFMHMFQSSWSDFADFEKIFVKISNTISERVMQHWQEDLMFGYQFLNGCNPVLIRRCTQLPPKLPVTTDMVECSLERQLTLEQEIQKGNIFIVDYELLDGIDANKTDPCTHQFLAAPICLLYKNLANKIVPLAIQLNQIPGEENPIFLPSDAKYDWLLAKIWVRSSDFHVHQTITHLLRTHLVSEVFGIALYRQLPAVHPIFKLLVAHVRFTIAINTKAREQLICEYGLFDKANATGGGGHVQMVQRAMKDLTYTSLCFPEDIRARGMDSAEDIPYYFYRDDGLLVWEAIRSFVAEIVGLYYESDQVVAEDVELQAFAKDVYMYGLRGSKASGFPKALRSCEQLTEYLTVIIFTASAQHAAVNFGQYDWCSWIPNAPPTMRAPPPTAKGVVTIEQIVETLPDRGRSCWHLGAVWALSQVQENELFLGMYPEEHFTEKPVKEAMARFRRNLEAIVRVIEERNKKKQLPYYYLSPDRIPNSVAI
From the text: (a) An in vitro spectrophotometric enzyme assay system, which assesses the inhibitory properties of a test compound in a cell free system using 5-LO isolated from guinea pig neutrophils and as described by D. Aharony and R. L. Stein (J. Biol. Chem., 1986, 261(25), 11512-11519). This test provides a measure of the intrinsic inhibitory properties against soluble 5-LO in an extracellular environment.

[3] = molecular target: T2, cyclooxygenase (Rattus norvegicus, UniProt Q63921); assay: Test (b): heparinised rat blood challenged with A23187, PGE2 radioimmunoassay; format: cell-based
T2 construct: incubating a test compound with heparinised rat blood; from tissue; host or cells: heparinised rat blood
T2 sequence (Q63921 27-602): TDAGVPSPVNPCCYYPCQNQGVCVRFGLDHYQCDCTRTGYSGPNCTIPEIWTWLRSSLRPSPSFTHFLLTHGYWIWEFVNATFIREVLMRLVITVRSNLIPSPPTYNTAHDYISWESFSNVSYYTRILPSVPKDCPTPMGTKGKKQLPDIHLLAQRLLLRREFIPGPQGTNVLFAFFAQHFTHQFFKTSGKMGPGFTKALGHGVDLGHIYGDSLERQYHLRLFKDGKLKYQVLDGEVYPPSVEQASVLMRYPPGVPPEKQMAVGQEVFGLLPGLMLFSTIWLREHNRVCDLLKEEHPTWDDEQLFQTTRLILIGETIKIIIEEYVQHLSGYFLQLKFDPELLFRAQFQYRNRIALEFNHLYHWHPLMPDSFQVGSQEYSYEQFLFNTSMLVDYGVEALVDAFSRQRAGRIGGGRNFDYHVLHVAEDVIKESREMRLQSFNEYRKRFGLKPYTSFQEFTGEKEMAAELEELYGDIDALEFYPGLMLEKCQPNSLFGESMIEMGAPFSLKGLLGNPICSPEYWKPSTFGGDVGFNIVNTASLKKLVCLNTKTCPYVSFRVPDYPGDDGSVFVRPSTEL
Procedure: (§1) (b) An in vitro assay system involving incubating a test compound with heparinised rat blood, prior to challenge with the calcium ionophore A23187 and then indirectly measuring the inhibitory effects on 5-LO by assaying the amount of LTB4 using the specific radioimmunoassay described by Carey and Forder (F. Carey and R. A. Forder, Brit. J. Pharmacol. 1985, 84, 34P) which involves the use of a protein-LTB4 conjugate produced using the procedure of Young et alia Prostaglandins, 1983, 26(4), 605-613). The effects of a test compound on the enzyme cyclooxygenase (which is involved in the alternative metabolic pathway for arachidonic acid and gives rise to prostaglandins, thromboxanes and related metabolites) may be measured at the same time using the specific radioimmunoassay for prostaglandin E2 (PGE2) described by Carey and Forder (see above). This test provides an indication of the effects of a test compound against 5-LO and also cyclooxygenase in the presence of blood cells and proteins. It permits the selectivity of the inhibitory effect on 5-LO or cyclooxygenase to be assessed.

[4] = molecular target: T3, 5-LO (Rattus norvegicus, UniProt P12527); assay: Test (b): heparinised rat blood challenged with A23187, LTB4 radioimmunoassay; format: cell-based; set-up: incubating a test compound with heparinised rat blood; from tissue; host or cells: heparinised rat blood
T3 sequence (P12527 1-673): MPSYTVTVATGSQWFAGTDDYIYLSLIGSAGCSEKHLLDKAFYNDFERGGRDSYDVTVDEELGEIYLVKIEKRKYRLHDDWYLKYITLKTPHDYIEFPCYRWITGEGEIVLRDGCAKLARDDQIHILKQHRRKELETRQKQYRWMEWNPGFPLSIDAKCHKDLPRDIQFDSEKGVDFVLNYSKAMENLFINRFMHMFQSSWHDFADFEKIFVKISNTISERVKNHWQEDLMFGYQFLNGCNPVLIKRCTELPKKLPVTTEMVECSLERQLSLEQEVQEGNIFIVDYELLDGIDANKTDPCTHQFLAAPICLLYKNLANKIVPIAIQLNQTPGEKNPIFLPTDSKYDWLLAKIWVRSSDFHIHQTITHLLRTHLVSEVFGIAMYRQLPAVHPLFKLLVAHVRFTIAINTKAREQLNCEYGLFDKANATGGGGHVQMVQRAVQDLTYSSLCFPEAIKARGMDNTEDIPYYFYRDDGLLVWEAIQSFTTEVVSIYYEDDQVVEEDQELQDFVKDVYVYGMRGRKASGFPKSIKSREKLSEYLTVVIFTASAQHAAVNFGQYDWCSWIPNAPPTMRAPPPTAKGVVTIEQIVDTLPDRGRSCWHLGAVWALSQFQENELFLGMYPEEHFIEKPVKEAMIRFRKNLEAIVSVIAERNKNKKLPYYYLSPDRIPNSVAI
Procedure: as §1

[5] = molecular target: T3, 5-LO; assay: Test (c): ex vivo assay, oral dosing, blood challenged with A23187, LTB4 radioimmunoassay; format: in vivo; set-up: blood collection, heparinisation, challenge with A23187 and radioimmunoassay of LTB4 and PGE2; from tissue; host or cells: blood of dosed animals, heparinised ex vivo; details: A23187 challenge
Procedure: (c) An ex vivo assay system, which is a variation of test b) above, involving administration of a test compound (usually orally as the suspension produced when a solution of the test compound in dimethylsulphoxide is added to carboxymethylcellulose), blood collection, heparinisation, challenge with A23187 and radioimmunoassay of LTB4 and PGE2. This test provides an indication of the bioavailability of a test compound as an inhibitor of 5-LO or cyclooxygenase.

IC50 [2] [µM] | IC50 [3] [µM] | IC50 [4] [µM] | ED50 [5] [mg/kg] | SMILES | induction of methaemoglobin formation [1]
– | – | – | – | O=c1c2ccccc2[nH]n1Cc1cccnc1 [1,2-dihydro-2-(3-pyridylmethyl) 3H indazol-3-one] | causes induction of methaemoglobin formation
3.1 | 72 | 1.4 | 30 to 100 | CCCCCNC(=O)c1cccc2[nH]n(C)c(=O)c12 [Example 5, 1,2-dihydro-2-methyl-4-(N-n-pentylcarbamoyl)-3H-indazol-3-one] | –

Reference: patent US5036083A, “Heterocyclic agents” (ICI Pharma, priority 1988, dated 1991)
